Assay: xn = mol fraction of the nth substance listed
Settings: Liquid, absorption in thin film, x2 = 0

CCn1cc[n+](C)c1.N#C[C-](C#N)C#N [1-ethyl-3-methyl-1H-imidazolium tricyanomethanide] + O=C=O
Settings	binary diffusion coefficient [m2/s]
298.15 K, 96 kPa	3.3e-10
298.15 K, 194 kPa	2.4e-10
298.15 K, 294 kPa	2.7e-10
298.15 K, 393 kPa	2.6e-10
298.15 K, 493 kPa	2.8e-10
298.15 K, 793 kPa	3.6e-10
298.15 K, 893 kPa	3.2e-10
298.15 K, 993 kPa	3.2e-10
298.15 K, 1293 kPa	3.9e-10
298.15 K, 1393 kPa	3.8e-10
298.15 K, 1493 kPa	4.1e-10
298.15 K, 1793 kPa	4.4e-10
298.15 K, 1893 kPa	4.1e-10
298.15 K, 1992 kPa	4.2e-10
308.15 K, 194 kPa	2.9e-10
308.15 K, 293 kPa	3e-10
308.15 K, 393 kPa	3e-10
308.15 K, 493 kPa	3e-10
308.15 K, 593 kPa	3.1e-10
308.15 K, 693 kPa	3.3e-10
308.15 K, 792 kPa	3.8e-10
308.15 K, 893 kPa	3.6e-10
308.15 K, 993 kPa	3.5e-10
308.15 K, 1093 kPa	3.6e-10
308.15 K, 1192 kPa	4.1e-10
308.15 K, 1293 kPa	3.7e-10
308.15 K, 1393 kPa	3.9e-10
308.15 K, 1493 kPa	4.1e-10
308.15 K, 1593 kPa	3.9e-10
308.15 K, 1693 kPa	4.1e-10
308.15 K, 1792 kPa	4.2e-10
308.15 K, 1893 kPa	4.5e-10
308.15 K, 1993 kPa	4.1e-10
323.15 K, 194 kPa	4.4e-10
323.15 K, 294 kPa	4.8e-10
323.15 K, 394 kPa	4.4e-10
323.15 K, 494 kPa	3.9e-10
323.15 K, 593 kPa	4.1e-10
323.15 K, 692 kPa	4.1e-10
323.15 K, 793 kPa	4.4e-10
323.15 K, 892 kPa	5e-10
323.15 K, 993 kPa	4.4e-10
323.15 K, 1093 kPa	4.2e-10
323.15 K, 1193 kPa	5.3e-10
323.15 K, 1392 kPa	4.6e-10
323.15 K, 1492 kPa	4.2e-10
323.15 K, 1593 kPa	4.2e-10
323.15 K, 1693 kPa	4.2e-10
323.15 K, 1793 kPa	5.9e-10
323.15 K, 1993 kPa	4.9e-10
338.25 K, 94 kPa	5.1e-10
338.25 K, 194 kPa	5e-10
338.25 K, 294 kPa	5.1e-10
338.25 K, 394 kPa	4.9e-10
338.25 K, 494 kPa	5.8e-10
338.25 K, 594 kPa	4.5e-10
338.25 K, 693 kPa	4.6e-10
338.25 K, 793 kPa	5.6e-10
338.25 K, 893 kPa	5.2e-10
338.25 K, 1093 kPa	5.1e-10
338.25 K, 1192 kPa	5.2e-10
338.25 K, 1393 kPa	5.8e-10
338.25 K, 1493 kPa	4.9e-10
338.25 K, 1592 kPa	5.1e-10
338.25 K, 1693 kPa	4.6e-10
338.25 K, 1792 kPa	5.2e-10
338.25 K, 1993 kPa	5.4e-10
353.25 K, 95 kPa	6.1e-10
353.25 K, 294 kPa	9e-10
353.25 K, 494 kPa	7.4e-10
353.25 K, 594 kPa	6.6e-10
353.25 K, 694 kPa	6.6e-10
353.25 K, 794 kPa	6.8e-10
353.25 K, 894 kPa	7.8e-10
353.25 K, 994 kPa	6.7e-10
353.25 K, 1093 kPa	6.8e-10
353.25 K, 1192 kPa	7e-10
353.25 K, 1593 kPa	7.5e-10
353.25 K, 1693 kPa	8.2e-10
353.25 K, 1893 kPa	7.4e-10
353.25 K, 1993 kPa	7.8e-10

CCCCCCCn1cc[n+](C)c1.N#C[C-](C#N)C#N [1-heptyl-3-methylimidazolium tricyanomethanide] + O=C=O
Settings	binary diffusion coefficient [m2/s]
298.15 K, 93 kPa	2e-10
298.15 K, 193 kPa	1.6e-10
298.15 K, 293 kPa	1.7e-10
298.15 K, 393 kPa	1.9e-10
298.15 K, 492 kPa	2e-10
298.15 K, 692 kPa	2.3e-10
298.15 K, 792 kPa	2.4e-10
298.15 K, 893 kPa	2.5e-10
298.15 K, 993 kPa	2.7e-10
298.15 K, 1193 kPa	3.1e-10
298.15 K, 1293 kPa	2.9e-10
298.15 K, 1392 kPa	2.9e-10
298.15 K, 1493 kPa	3.1e-10
298.15 K, 1693 kPa	2.8e-10
298.15 K, 1792 kPa	3.1e-10
298.15 K, 1893 kPa	3.6e-10
298.15 K, 1993 kPa	3.5e-10
308.15 K, 94 kPa	2.6e-10
308.15 K, 194 kPa	2.3e-10
308.15 K, 294 kPa	2.4e-10
308.15 K, 394 kPa	2.8e-10
308.15 K, 493 kPa	2.8e-10
308.15 K, 593 kPa	2.9e-10
308.15 K, 693 kPa	2.7e-10
308.15 K, 993 kPa	3e-10
308.15 K, 1093 kPa	3.2e-10
308.15 K, 1192 kPa	3.4e-10
308.15 K, 1293 kPa	3.3e-10
308.15 K, 1392 kPa	3.5e-10
308.15 K, 1493 kPa	3.6e-10
308.15 K, 1893 kPa	3.9e-10
308.15 K, 1993 kPa	4.2e-10
323.15 K, 95 kPa	3.2e-10
323.15 K, 195 kPa	4e-10
323.15 K, 294 kPa	3.8e-10
323.15 K, 394 kPa	3.5e-10
323.15 K, 494 kPa	3.8e-10
323.15 K, 594 kPa	3.9e-10
323.15 K, 692 kPa	3.2e-10
323.15 K, 793 kPa	4e-10
323.15 K, 893 kPa	3.5e-10
323.15 K, 993 kPa	4.4e-10
323.15 K, 1093 kPa	4.2e-10
323.15 K, 1192 kPa	4.4e-10
323.15 K, 1293 kPa	3.2e-10
338.25 K, 95 kPa	4.5e-10
338.25 K, 196 kPa	4.4e-10
338.25 K, 295 kPa	4.3e-10
338.25 K, 394 kPa	5.3e-10
338.25 K, 493 kPa	4.7e-10
338.25 K, 594 kPa	5.2e-10
338.25 K, 793 kPa	6.1e-10
338.25 K, 993 kPa	5.8e-10
338.25 K, 1093 kPa	5.6e-10
338.25 K, 1292 kPa	6.5e-10
338.25 K, 1392 kPa	5.6e-10
338.25 K, 1793 kPa	5.8e-10
338.25 K, 1893 kPa	5.6e-10
338.25 K, 1993 kPa	6.5e-10
353.25 K, 494 kPa	6.4e-10
353.25 K, 594 kPa	6.5e-10
353.25 K, 693 kPa	5.4e-10
353.25 K, 793 kPa	6e-10
353.25 K, 894 kPa	6.6e-10
353.25 K, 994 kPa	7.5e-10
353.25 K, 1094 kPa	5.7e-10
353.25 K, 1193 kPa	7.1e-10

From the NIST ThermoML archive (doi:10.1021/acs.jced.6b00657)
